Experiments:
Type in all cases: biochemical
[1] = target: TDP-43 peptide (amino acids 307-319) (Homo sapiens, UniProt Q13148); assay: TDP-43 thioflavin T assay; conditions: ThT RFU at 15 hours; 100% = TDP-43 + DMSO
Description: The effect of compounds on fibril formation by TDP-43 peptide (amino acids 307-319) was screened using a thioflavin T (ThT) fluorescence assay in a 96-well plate format. The monomeric form of TDP-43 307-319 was stored in HFIP at −20° C. in 32 μL vials and then thawed on ice. After thawing a stock aliquot on ice, 16 μL of HFIP and 432 μL 100 mM ammonium acetate was added. This mix was pipetted three times. Three such prepared aliquots were combined to create a master mix. 400 μM of ThT stock was prepared by dissolving 31.8 mg ThT in 10 mL Milli-Q water to make […] stock. The 10 mM ThT stock was then diluted to 400 μM with Milli-Q water and stored at −20° C. until use. 20 μL aliquots of compounds were used as initial starting material. 98 μL of master mix was then added to each well of 96-well plate, and then 2 μL of compounds was added to each well testing a compound. The plate was spun at 4700×rpm to remove bubbles at 4° C., and then the plate measurements were collected. ThT fluorescence was measured through the bottom of the plate using 440- and 480-nm excitation and emission filters for 15 hours at 0.5-hour intervals. Each well was scanned at 5 points with a 1.25 mm distance between points. The relative fluorescence unit (RFU) at 15 hours was used to rank the percent of aggregation for all tested compounds.

[2] = target: peptide fragment of TAR DNA-binding protein 43 (TDP-43) (Homo sapiens, UniProt Q13148); assay: Ion-mobility mass spectrometry (IM-MS) of TDP-43 peptide oligomerization; conditions: approximately 4 hours after addition of compound to aggregated peptide sample; for 6mer/hexamer peak of TDP-43 peptide (IM-MS, FIG. 2): versus control
Text: One of the assays used to determine the effectiveness of the compounds is Ion Mobility Mass Spectroscopy, or IM-MS. In this assay, a protein solution was fed into the IM-MS tube. At the entrance to the tube, an electric field ionized the proteins, propelling them into the body of the tube, where a constant electric field propelled them forward. Upon reaching the end of the tube, the ionized proteins were counted by a particle detector, which can also measure the mass/charge ratio and flight time of each particle.
Methods: IM-MS was utilized to monitor the oligomerization of a peptide fragment of TAR DNA-binding protein 43 (TDP-43) in the presence of compounds 1 and 2 using methods as described in Laos et al ACS Chem. Neuro. 2019, 10 (9), 4112-4123; and Biochemistry 2019, 59 (4), 499-508. The accumulation of TDP-43 aggregates in the central nervous system is a common feature of many neurodegenerative diseases, such as amyotrophic lateral sclerosis, frontotemporal dementia, Alzheimer's disease, and limbic predominant age-related TDP-43 encephalopathy. The ability of IM-MS to separate TDP-43 aggregate species of a specific [m]z+ (m=mass, z=charge) that contains different [n]z+ (n=number of TDP-43 peptide molecules aggregated together) by measuring the arrival time distributions (ATDs) yields oligomeric distribution spectrographs.
In FIG. 2, the number denoted at the top of each peak is the peptide aggregate size (e.g., 6=6 peptides aggregated together). The spectrograph designated as Control is the peptide form of TDP-43 without any protein aggregation disrupting compound added. Measurements were taken approximately 4 hours after addition of compound to aggregated peptide sample. […] The 6mer is the toxic oligomer that propagates disease and neuronal degeneration. FIG. 2 also discloses that the addition of compound 1 or compound 2 decreased the number of higher-order TDP-43 oligomers and increased the number of TDP-43 monomers and dimers.
We conducted two types of experiments. The first was a co-incubation experiment, where we added the compounds to a fresh solution of monomeric protein, and allowed the protein to aggregate (or, ideally, not aggregate) in the presence of the compound. The second experiment was a recovery experiment, where we added our compounds to a solution of pre-aggregated protein. Co-incubation experiments allowed us to determine if the compounds can prevent initial aggregation, while recovery experiments allowed us to determine if the compounds can break up existing aggregates.

alpha-synuclein = target: T1, alpha-synuclein (Homo sapiens, UniProt P37840); assay: Alpha-synuclein thioflavin T assay; conditions: 250 μM compound on pre-formed aggregates of 50 μM alpha-synuclein, 24 hours; 100% = alpha synuclein + DMSO
T1 construct: purchased Proteos RP-003
Description: Recombinant alpha-synuclein monomeric protein was procured from Proteos (catalog no. RP-003, 10 mg/ml or 700 μM concentration). Prior to aggregation, the protein was centrifuged at 10,000 rpm for 5 minutes to remove any pre-existing aggregates. The stock solution was then diluted to 50 μM concentration in filtered 1×PBS and allowed to aggregate with continuous shaking at 1000 rpm on a thermomixer for 96 hours at 37° C. After 96 hours, the ThT fluorescence was checked for the sample to confirm aggregate formation using ThT, a well-known amyloid marker dye. The ThT active aggregates were then used for high-throughput small molecule inhibitor screening. For screening small molecule disaggregators, 10 mM DMSO stock solutions of small molecules were diluted to 250 μM in the reaction mix containing 20 μM ThT and aggregates formed by 50 μM alpha-synuclein. As a positive/vehicle control, 100% DMSO stock was diluted to 2.5% to match the DMSO in the small molecule conditions. ThT fluorescence assay was performed for 24 hours with 3 replicates per sample in a 384 well plate (Corning low volume black/clear flat bottom) on a microplate reader (Molecular Devices SpectraMax iD5 or BioTek Agilent Synergy Neo2) using excitation wavelength of 440 nm and emission wavelength of 490 nm. The temperature was maintained at 37° C. and the plate was continuously shaken throughout the measurement. All data were plotted and analyzed in GraphPad Prism.

% aggregation TDP-43 ThT at 50 μM TDP-43 [1] [%] | number of TDP-43 monomers and dimers (IM-MS, FIG. 2) [2] | number of higher-order TDP-43 oligomers (IM-MS, FIG. 2) [2] | 6mer/hexamer peak of TDP-43 peptide (IM-MS, FIG. 2) [2] | % alpha synuclein aggregation as measured on ThT (alpha-synuclein) [%] | SMILES
77.4 | increased | decreased | depleted | 77.8 | CC(=O)Nc1ccc2c(c1)CCN(CCc1cccc(Cl)c1)C2 [Compound 1]
80.7 | increased | decreased | depleted | 95.6 | CC(=O)Nc1ccc2c(c1)CCN(CCc1ccc(F)c(Cl)c1)C2 [Compound 2]

Source: patent publication US20260242340A1, “COMPOUNDS AND METHODS FOR TREATING PROTEIN AGGREGATION DISEASES” (ACELOT, INC., priority 2023, published 2026)
